From ChEMBL document CHEMBL1201862, “PubChem BioAssay data set” (2004)
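Five compound concentrations were applied to cells in 96-well plates for 48 hours; endpoints were derived by simple linear interpolation of the resulting dose-response curve. GI50 = concentration required for 50% inhibition of growth.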 The source made the active and inactive calls. Rule as the data show it: active = GI50 up to about 1.1 µM and inactive = higher.

What was measured:
Experiment in all cases: NCI anticancer screen, dose series, 48 h
NCI/ADR-RES = system: NCI/ADR-RES
HCC 2998 = system: HCC 2998
CAKI-1 = system: CAKI-1
SN12C = system: SN12C
SR = system: SR
MDA-MB-231 = system: MDA-MB-231
OVCAR-5 = system: OVCAR-5
RPMI-8226 = system: RPMI-8226
EKVX = system: EKVX
A549 = system: A549
HCT-15 = system: HCT-15
OVCAR-4 = system: OVCAR-4
A498 = system: A498
HT-29 = system: HT-29
PC-3 = system: PC-3
SK-MEL-5 = system: SK-MEL-5
Malme-3M = system: Malme-3M
SF-268 = system: SF-268
M14 = system: M14
SK-OV-3 = system: SK-OV-3
KM12 = system: KM12
T47D = system: T47D
HOP-62 = system: HOP-62
U-251 = system: U-251
OVCAR-3 = system: OVCAR-3
NCI-H226 = system: NCI-H226
BT-549 = system: BT-549
SK-MEL-2 = system: SK-MEL-2
CCRF-CEM = system: CCRF-CEM
MOLT-4 = system: MOLT-4
OVCAR-8 = system: OVCAR-8
TK-10 = system: TK-10
MDA-MB-435 = system: MDA-MB-435
COLO 205 = system: COLO 205
UACC-62 = system: UACC-62
SF-539 = system: SF-539
SF-295 = system: SF-295
IGROV-1 = system: IGROV-1
RXF 393 = system: RXF 393
HL-60 = system: HL-60
NCI-H522 = system: NCI-H522
MCF7 = system: MCF7
MDA-N = system: MDA-N
786-0 = system: 786-0
ACHN = system: ACHN
HOP-92 = system: HOP-92
DU-145 = system: DU-145
K562 = system: K562
HCT-116 = system: HCT-116
UO-31 = system: UO-31
SK-MEL-28 = system: SK-MEL-28
NCI-H460 = system: NCI-H460
LOX IMVI = system: LOX IMVI
NCI-H23 = system: NCI-H23
SNB-19 = system: SNB-19
SNB-75 = system: SNB-75
UACC-257 = system: UACC-257
Hs-578T = system: Hs-578T
SW-620 = system: SW-620

## Cn1c(=O)c2nc3nnc(C#N)c(N)n3c2n(C)c1=O
NCI/ADR-RES
  GI50: > 100 µM (inactive)
HCC 2998
  GI50: > 100 µM (inactive)
CAKI-1
  GI50: 51.8 µM (inactive)
SN12C
  GI50: > 100 µM (inactive)
SR
  GI50: > 100 µM (inactive)
MDA-MB-231
  GI50: > 100 µM (inactive)
OVCAR-5
  GI50: > 100 µM (inactive)
RPMI-8226
  GI50: > 100 µM (inactive)
EKVX
  GI50: > 100 µM (inactive)
A549
  GI50: > 100 µM (inactive)
HCT-15
  GI50: > 100 µM
OVCAR-4
  GI50: > 100 µM (inactive)
A498
  GI50: 51.4 µM (inactive)
HT-29
  GI50: > 100 µM (inactive)
PC-3
  GI50: > 100 µM (inactive)
SK-MEL-5
  GI50: 45.9 µM (inactive)
Malme-3M
  GI50: 25.2 µM (inactive)
SF-268
  GI50: > 100 µM (inactive)
M14
  GI50: > 100 µM (inactive)
SK-OV-3
  GI50: > 100 µM (inactive)
KM12
  GI50: > 100 µM (inactive)
T47D
  GI50: 33 µM (inactive)
HOP-62
  GI50: > 100 µM (inactive)
U-251
  GI50: > 100 µM (inactive)
OVCAR-3
  GI50: > 100 µM (inactive)
NCI-H226
  GI50: 54.1 µM (inactive)
BT-549
  GI50: > 100 µM (inactive)
SK-MEL-2
  GI50: > 100 µM (inactive)
CCRF-CEM
  GI50: 67.8 µM (inactive)
MOLT-4
  GI50: > 100 µM (inactive)
OVCAR-8
  GI50: > 100 µM (inactive)
TK-10
  GI50: > 100 µM (inactive)
MDA-MB-435
  GI50: > 100 µM (inactive)
COLO 205
  GI50: > 100 µM (inactive)
UACC-62
  GI50: > 100 µM (inactive)
SF-539
  GI50: 90.2 µM (inactive)
SF-295
  GI50: > 100 µM (inactive)
IGROV-1
  GI50: 87.3 µM (inactive)
RXF 393
  GI50: 79.4 µM (inactive)
HL-60
  GI50: > 100 µM (inactive)
NCI-H522
  GI50: > 100 µM (inactive)
MCF7
  GI50: > 100 µM (inactive)
MDA-N
  GI50: > 100 µM (inactive)
786-0
  GI50: > 100 µM (inactive)
ACHN
  GI50: 44.4 µM (inactive)
HOP-92
  GI50: 31.8 µM (inactive)
DU-145
  GI50: 72.4 µM (inactive)
K562
  GI50: > 100 µM (inactive)
HCT-116
  GI50: > 100 µM (inactive)
UO-31
  GI50: 50.6 µM (inactive)
SK-MEL-28
  GI50: > 100 µM (inactive)
NCI-H460
  GI50: > 100 µM (inactive)

## Oc1cc(-c2ccc3ccccc3c2)nc2ncc(Cl)cc12
NCI/ADR-RES
  GI50: 6.32 µM (inactive)
HCC 2998
  GI50: 10.2 µM (inactive)
SN12C
  GI50: 9.06 µM (inactive)
MDA-MB-231
  GI50: 15.6 µM (inactive)
OVCAR-5
  GI50: 64.9 µM (inactive)
RPMI-8226
  GI50: 2.99 µM (inactive)
EKVX
  GI50: 14.5 µM (inactive)
A549
  GI50: 6.92 µM (inactive)
LOX IMVI
  GI50: 5.33 µM (inactive)
NCI-H23
  GI50: 7.14 µM (inactive)
HCT-15
  GI50: 3.57 µM
OVCAR-4
  GI50: 6.43 µM (inactive)
A498
  GI50: 12.1 µM (inactive)
HT-29
  GI50: 5.66 µM (inactive)
Malme-3M
  GI50: 4.05 µM (inactive)
SF-268
  GI50: 4.74 µM (inactive)
M14
  GI50: 8.17 µM (inactive)
SK-OV-3
  GI50: 4.73 µM (inactive)
SNB-19
  GI50: 9.31 µM (inactive)
KM12
  GI50: 3.79 µM (inactive)
T47D
  GI50: 18.8 µM (inactive)
HOP-62
  GI50: 8.59 µM (inactive)
NCI-H226
  GI50: 12 µM (inactive)
BT-549
  GI50: 37.8 µM (inactive)
SK-MEL-2
  GI50: 7.64 µM (inactive)
CCRF-CEM
  GI50: 3.48 µM (inactive)
MOLT-4
  GI50: 3.27 µM (inactive)
OVCAR-8
  GI50: 6.15 µM (inactive)
SNB-75
  GI50: 1.98 µM (inactive)
TK-10
  GI50: 12.7 µM (inactive)
COLO 205
  GI50: 3.81 µM (inactive)
UACC-62
  GI50: 3.66 µM (inactive)
UACC-257
  GI50: 9.06 µM (inactive)
SF-539
  GI50: 5.62 µM (inactive)
IGROV-1
  GI50: 8.09 µM (inactive)
NCI-H522
  GI50: 4.32 µM (inactive)
MCF7
  GI50: 2.44 µM (inactive)
786-0
  GI50: 2.84 µM (inactive)
ACHN
  GI50: 4.9 µM (inactive)
HOP-92
  GI50: 5.31 µM (inactive)
DU-145
  GI50: 11.4 µM (inactive)
Hs-578T
  GI50: 5.27 µM (inactive)
K562
  GI50: 3.23 µM (inactive)
UO-31
  GI50: 14.4 µM (inactive)
SK-MEL-28
  GI50: 40.9 µM (inactive)
SW-620
  GI50: 4.12 µM (inactive)

## N=c1c2ccccc2nc2oc3ccccc3n12
NCI/ADR-RES
  GI50: 31.5 µM (inactive)
HCC 2998
  GI50: > 100 µM (inactive)
CAKI-1
  GI50: 44.4 µM (inactive)
SN12C
  GI50: > 100 µM (inactive)
OVCAR-5
  GI50: 45.3 µM (inactive)
RPMI-8226
  GI50: > 100 µM (inactive)
EKVX
  GI50: 1.91 µM (inactive)
A549
  GI50: 33.8 µM (inactive)
LOX IMVI
  GI50: 53.8 µM (inactive)
NCI-H23
  GI50: 35.2 µM (inactive)
HCT-15
  GI50: > 100 µM
OVCAR-4
  GI50: 29 µM (inactive)
A498
  GI50: 38.7 µM (inactive)
HT-29
  GI50: > 100 µM (inactive)
PC-3
  GI50: 85.1 µM (inactive)
SK-MEL-5
  GI50: 15.5 µM (inactive)
Malme-3M
  GI50: 41.1 µM (inactive)
SF-268
  GI50: 14.9 µM (inactive)
SK-OV-3
  GI50: 40.6 µM (inactive)
SNB-19
  GI50: 25.5 µM (inactive)
HOP-62
  GI50: 23.2 µM (inactive)
OVCAR-3
  GI50: > 10 µM (inactive)
BT-549
  GI50: 51.2 µM (inactive)
SK-MEL-2
  GI50: 37.5 µM (inactive)
CCRF-CEM
  GI50: 55 µM (inactive)
OVCAR-8
  GI50: 37.5 µM (inactive)
TK-10
  GI50: 28.4 µM (inactive)
MDA-MB-435
  GI50: > 100 µM (inactive)
COLO 205
  GI50: > 100 µM (inactive)
UACC-62
  GI50: 28.6 µM (inactive)
UACC-257
  GI50: 68.1 µM (inactive)
SF-539
  GI50: 37.2 µM (inactive)
SF-295
  GI50: > 100 µM (inactive)
IGROV-1
  GI50: 20.6 µM (inactive)
HL-60
  GI50: > 100 µM (inactive)
MCF7
  GI50: 45.1 µM (inactive)
786-0
  GI50: > 10 µM (inactive)
ACHN
  GI50: 30.5 µM (inactive)
HOP-92
  GI50: 26.5 µM (inactive)
Hs-578T
  GI50: 20.6 µM (inactive)
K562
  GI50: > 100 µM (inactive)
HCT-116
  GI50: 36.6 µM (inactive)
UO-31
  GI50: > 100 µM (inactive)
SK-MEL-28
  GI50: > 10 µM (inactive)
NCI-H460
  GI50: > 10 µM (inactive)
SW-620
  GI50: 93.5 µM (inactive)

## O=C1/C(=C\c2cccc(Oc3ccccc3)c2)S(=O)(=O)C(c2ccccc2)N1c1ccccc1Cl (stereo unspecified)
NCI/ADR-RES
  GI50: 29.4 µM (inactive)
HCC 2998
  GI50: 49.3 µM (inactive)
CAKI-1
  GI50: 32.6 µM (inactive)
SN12C
  GI50: 23 µM (inactive)
SR
  GI50: 17.9 µM (inactive)
MDA-MB-231
  GI50: 28.2 µM (inactive)
OVCAR-5
  GI50: 33.7 µM (inactive)
RPMI-8226
  GI50: 16.3 µM (inactive)
EKVX
  GI50: 22.3 µM (inactive)
A549
  GI50: 31.6 µM (inactive)
LOX IMVI
  GI50: 29.2 µM (inactive)
NCI-H23
  GI50: 24.4 µM (inactive)
HCT-15
  GI50: 31.2 µM
OVCAR-4
  GI50: 15.4 µM (inactive)
A498
  GI50: 45.6 µM (inactive)
HT-29
  GI50: 22.6 µM (inactive)
PC-3
  GI50: 29 µM (inactive)
SK-MEL-5
  GI50: 17.4 µM (inactive)
Malme-3M
  GI50: 32.6 µM (inactive)
M14
  GI50: 28.6 µM (inactive)
SK-OV-3
  GI50: 34.2 µM (inactive)
SNB-19
  GI50: 16.1 µM (inactive)
KM12
  GI50: 27 µM (inactive)
T47D
  GI50: 16.3 µM (inactive)
HOP-62
  GI50: 26.4 µM (inactive)
U-251
  GI50: 27.9 µM (inactive)
OVCAR-3
  GI50: 20.9 µM (inactive)
NCI-H226
  GI50: 29.6 µM (inactive)
BT-549
  GI50: 43.1 µM (inactive)
SK-MEL-2
  GI50: 26 µM (inactive)
CCRF-CEM
  GI50: 19.1 µM (inactive)
MOLT-4
  GI50: 15.1 µM (inactive)
OVCAR-8
  GI50: 23.4 µM (inactive)
SNB-75
  GI50: 20 µM (inactive)
TK-10
  GI50: 77.1 µM (inactive)
MDA-MB-435
  GI50: 27.7 µM (inactive)
COLO 205
  GI50: 17.6 µM (inactive)
UACC-62
  GI50: 25.2 µM (inactive)
UACC-257
  GI50: 28.6 µM (inactive)
SF-539
  GI50: 5.83 µM (inactive)
SF-295
  GI50: 30.8 µM (inactive)
IGROV-1
  GI50: 17.1 µM (inactive)
RXF 393
  GI50: 29 µM (inactive)
HL-60
  GI50: 13.9 µM (inactive)
NCI-H522
  GI50: 18.4 µM (inactive)
MCF7
  GI50: 21.9 µM (inactive)
MDA-N
  GI50: 21.2 µM (inactive)
786-0
  GI50: 29.3 µM (inactive)
ACHN
  GI50: 27.8 µM (inactive)
HOP-92
  GI50: 17.9 µM (inactive)
DU-145
  GI50: 36.1 µM (inactive)
K562
  GI50: 14.5 µM (inactive)
HCT-116
  GI50: 15.4 µM (inactive)
UO-31
  GI50: 19.7 µM (inactive)
SK-MEL-28
  GI50: 38.9 µM (inactive)
NCI-H460
  GI50: 32.6 µM (inactive)
SW-620
  GI50: 30.2 µM (inactive)
